Data taken from the supplement of paper PMC10307832.

Columns and labels:
Assay in all cases: relative viability (nuclei count vs DMSO), 5 days (fraction); higher = more cells survive
AZ3146 + Navitoclax = compound: CN1CCC(CC1)OC2=CC(=C(C=C2)NC3=NC=C4C(=N3)N(C(=O)N4C)C5CCCC5)OC [AZ3146] + CC1(C)CCC(c2ccc(Cl)cc2)=C(CN2CCN(c3ccc(C(=O)NS(=O)(=O)c4ccc(N[C@H](CCN5CCOCC5)CSc5ccccc5)c(S(=O)(=O)C(F)(F)F)c4)cc3)CC2)C1 [Navitoclax] (partner 0.5 µM)
Procedure, shortened: (§1)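 Five library-drug doses in √10 steps were combined with a fixed anchor-drug dose, or a single drug was given alone, by pin tool to lung cancer cell lines in 1536-well plates the day after seeding. Nuclei were stained and counted after 5 days. Relative viability is the nuclei count in treated wells over that in vehicle wells, taken as the median of duplicate plates.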

GSK-J4 + Crizotinib = compound: CCOC(=O)CCNc1cc(N2CCc3ccccc3CC2)nc(-c2ccccn2)n1 [GSK-J4] + C[C@@H](Oc1cc(-c2cnn(C3CCNCC3)c2)cnc1N)c1c(Cl)ccc(F)c1Cl [Crizotinib] (partner 1 µM)
Procedure, shortened: as §1

AZ3146 + Dasatinib = compound: CN1CCC(CC1)OC2=CC(=C(C=C2)NC3=NC=C4C(=N3)N(C(=O)N4C)C5CCCC5)OC [AZ3146] + Cc1nc(Nc2ncc(C(=O)Nc3c(C)cccc3Cl)s2)cc(N2CCN(CCO)CC2)n1 [Dasatinib] (partner 0.075 µM)
Procedure, shortened: as §1

AZ3146 + Luminespib = compound: CN1CCC(CC1)OC2=CC(=C(C=C2)NC3=NC=C4C(=N3)N(C(=O)N4C)C5CCCC5)OC [AZ3146] + CCNC(=O)c1noc(-c2cc(C(C)C)c(O)cc2O)c1-c1ccc(CN2CCOCC2)cc1 [Luminespib] (partner 0.01 µM)
Procedure, shortened: as §1

Row | Cell Line | relative viability (AZ3146 + Navitoclax; first compound 0.08 µM) | relative viability (AZ3146 + Navitoclax; first compound 0.253 µM) | relative viability (AZ3146 + Navitoclax; first compound 0.8 µM) | relative viability (AZ3146 + Navitoclax; first compound 2.53 µM) | relative viability (AZ3146 + Navitoclax; first compound 8 µM) | relative viability (GSK-J4 + Crizotinib; first compound 0.5 µM) | relative viability (GSK-J4 + Crizotinib; first compound 1.581 µM) | relative viability (GSK-J4 + Crizotinib; first compound 5 µM) | relative viability (GSK-J4 + Crizotinib; first compound 15.81 µM) | relative viability (GSK-J4 + Crizotinib; first compound 50 µM) | relative viability (AZ3146 + Dasatinib; first compound 0.08 µM) | relative viability (AZ3146 + Dasatinib; first compound 0.253 µM) | relative viability (AZ3146 + Dasatinib; first compound 0.8 µM) | relative viability (AZ3146 + Dasatinib; first compound 2.53 µM) | relative viability (AZ3146 + Dasatinib; first compound 8 µM) | relative viability (AZ3146 + Luminespib; first compound 0.08 µM) | relative viability (AZ3146 + Luminespib; first compound 0.253 µM) | relative viability (AZ3146 + Luminespib; first compound 0.8 µM) | relative viability (AZ3146 + Luminespib; first compound 2.53 µM) | relative viability (AZ3146 + Luminespib; first compound 8 µM)
1 | 201T | 1.19 | 1.2 | 1.16 | 1.27 | 1.2 | 1.01 | 1.07 | 1.01 | 1.02 | 0.996 | 0.548 | 0.59 | 0.511 | 0.609 | 0.625 | 0.994 | 1.03 | 0.979 | 1.09 | 1.04
2 | A549 | 1.12 | 1.29 | 1.23 | 0.467 | 0.0543 | 0.691 | 0.669 | – | 0.536 | 0.605 | – | – | – | – | – | – | – | – | – | –
3 | A-427 | 0.96 | 0.967 | 0.957 | 0.98 | 0.943 | 0.844 | – | 0.852 | 0.591 | 0.362 | 0.561 | 0.775 | 0.651 | 0.828 | 0.66 | 0.819 | 0.895 | 0.913 | 0.879 | 0.818
4 | ABC-1 | – | – | – | – | – | 1.03 | 0.953 | 1.17 | 0.81 | 0.343 | 0.493 | 0.56 | 0.562 | 0.713 | 0.421 | 0.331 | 0.483 | 0.782 | 0.568 | 0.532
5 | BEN | – | 0.0708 | 0.0628 | 0.0467 | 0.176 | 0.865 | 0.795 | – | 0.759 | 0.688 | – | 0.228 | 0.353 | 0.322 | 0.362 | – | 0.224 | 0.637 | 0.282 | 0.269
6 | CAL-12T | 1.21 | 1.28 | 1.24 | 1.32 | 1.17 | 0.522 | 0.512 | 0.341 | 0.479 | 0.589 | 0.453 | 0.517 | 0.369 | 0.377 | 0.192 | 0.267 | 0.573 | 0.423 | 0.556 | 0.341
7 | COR-L23 | 1.05 | 1.08 | 0.984 | 1.03 | 0.923 | 0.671 | 0.567 | – | 0.639 | 0.518 | 0.425 | 0.527 | 0.509 | 0.457 | 0.313 | 0.618 | 0.693 | 0.624 | 0.69 | 0.611
8 | COR-L 105 | 0.805 | 0.712 | 0.745 | 0.791 | 0.711 | 0.843 | 0.7 | 0.547 | 0.749 | 0.695 | 0.394 | 0.261 | 0.238 | 0.288 | 0.191 | 0.776 | 0.8 | 0.815 | 0.824 | 0.678
9 | Calu-6 | 0.781 | 0.952 | 0.763 | 0.665 | 0.278 | 0.726 | 0.618 | 0.828 | 0.76 | 0.685 | – | – | – | – | – | – | – | – | – | –
10 | ChaGo-K-1 | 1 | 1 | 0.897 | 0.996 | 0.672 | 1.03 | – | 0.879 | 1.12 | 0.926 | 0.614 | 0.554 | 0.512 | 0.6 | 0.45 | 0.651 | 0.528 | 0.618 | 0.816 | 0.588
11 | EBC-1 | 0.499 | 0.464 | 0.426 | 0.412 | 0.229 | 0.191 | 0.206 | 0.192 | 0.212 | 0.19 | – | – | – | – | – | – | – | – | – | –
12 | EKVX | 0.817 | 0.907 | 0.898 | 1.02 | 1.16 | 0.755 | 0.883 | 0.927 | 0.91 | 0.889 | 0.434 | 0.572 | 0.5 | 0.565 | 0.535 | 0.836 | 0.842 | 0.838 | 0.981 | 0.899
13 | EMC-BAC-2 | 1.07 | 1.23 | 1.25 | 1.21 | 1.26 | 0.712 | 0.695 | 0.726 | 0.743 | 0.733 | 0.273 | 0.366 | 0.38 | 0.372 | 0.354 | 1.13 | 1.16 | 1.17 | 1.31 | 1.22
14 | EPLC-272H | 0.985 | 0.98 | 1.05 | 1.37 | 1.19 | 0.956 | – | 1.14 | 0.816 | 0.915 | – | 0.396 | 0.347 | 0.413 | 0.287 | – | 0.342 | 0.519 | 0.323 | 0.321
15 | H3255 | 0.527 | 0.35 | 0.582 | 0.628 | 0.467 | 0.869 | 0.767 | 0.855 | 0.764 | 0.642 | 0.258 | 0.242 | 0.339 | 0.374 | 0.405 | 0.841 | 0.801 | 0.841 | 0.911 | 0.866
16 | HARA | 1.13 | 1.08 | 1.13 | 1.13 | 1.11 | 0.975 | 0.962 | – | 0.942 | 0.662 | 0.274 | 0.211 | 0.254 | 0.217 | 0.302 | 0.895 | 0.823 | 0.711 | 0.816 | 0.512
17 | HCC-15 | 0.725 | 0.659 | 0.703 | 0.718 | 0.727 | 0.755 | 0.733 | 0.778 | 0.757 | 0.536 | 0.727 | 0.64 | 0.597 | 0.557 | 0.491 | 0.262 | 0.393 | 0.531 | 0.785 | 0.552
18 | HCC-44 | 0.877 | 1.04 | 0.985 | 1.01 | 1.01 | 0.759 | 0.705 | 0.696 | 0.825 | 0.755 | – | – | – | – | – | 0.884 | 1.02 | 1.17 | 1.02 | 0.999
